Assays:
Test in all cases: relative viability (nuclei count vs DMSO), 5 days (fraction); higher = more cells survive
NCI-H2347 = tested on: NCI-H2347
Method in brief: (§1)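 Lung cancer cell lines were pin-tool dosed in 1536-well plates on the day after seeding, with either a lone drug or a fixed anchor-drug dose plus five library-drug doses (not always all listed) in √10 steps. Nuclei were counted on 4× images after 5 days. Relative viability is the ratio of treated-well to vehicle-well nuclei counts, with each value a median of duplicate plates.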

NCI-H650 = tested on: NCI-H650
Method in brief: as §1

NCI-H522 = tested on: NCI-H522
Method in brief: as §1

NCI-H441 = tested on: NCI-H441
Method in brief: as §1

201T = tested on: 201T
Method in brief: as §1

NCI-H1395 = tested on: NCI-H1395
Method in brief: as §1

NCI-H2087 = tested on: NCI-H2087
Method in brief: as §1

NCI-H647 = tested on: NCI-H647
Method in brief: as §1

NCI-H596 = tested on: NCI-H596
Method in brief: as §1

NCI-H2009 = tested on: NCI-H2009
Method in brief: as §1

NCI-H3122 = tested on: NCI-H3122
Method in brief: as §1

EMC-BAC-2 = tested on: EMC-BAC-2
Method in brief: as §1

NCI-H2023 = tested on: NCI-H2023
Method in brief: as §1

NCI-H1666 = tested on: NCI-H1666
Method in brief: as §1

LCLC-103H = tested on: LCLC-103H
Method in brief: as §1

BEN = tested on: BEN
Method in brief: as §1

NCI-H23 = tested on: NCI-H23
Method in brief: as §1

HARA = tested on: HARA
Method in brief: as §1

NCI-H838 = tested on: NCI-H838
Method in brief: as §1

LOU-NH91 = tested on: LOU-NH91
Method in brief: as §1

HCC-44 = tested on: HCC-44
Method in brief: as §1

NCI-H727 = tested on: NCI-H727
Method in brief: as §1

NCI-H2126 = tested on: NCI-H2126
Method in brief: as §1

NCI-H1993 = tested on: NCI-H1993
Method in brief: as §1

For CC(C)Oc1cc(Nc2nc(N[C@@H](C)c3ccc(F)cn3)ncc2Cl)n[nH]1 [AZ23] + CC(=O)Nc1cccc(-n2c(=O)n(C3CC3)c(=O)c3c(Nc4ccc(I)cc4F)n(C)c(=O)c(C)c32)c1 [Trametinib] (partner 0.02 µM), the relative viability (NCI-H2347; first compound 0.01 µM) was 0.272, the relative viability (NCI-H2347; first compound 0.03162 µM) was 0.272 and the relative viability (NCI-H2347; first compound 0.3162 µM) was 0.232. It also gave a relative viability (NCI-H650; first compound 0.01 µM) of 0.955, a relative viability (NCI-H650; first compound 0.03162 µM) of 0.99 and a relative viability (NCI-H650; first compound 0.3162 µM) of 0.987. For the same compound, the relative viability (NCI-H522; first compound 0.01 µM) was 0.894, the relative viability (NCI-H522; first compound 0.03162 µM) was 0.796 and the relative viability (NCI-H522; first compound 0.3162 µM) was 0.617. It also gave a relative viability (NCI-H441; first compound 0.01 µM) of 0.504, a relative viability (NCI-H441; first compound 0.03162 µM) of 0.433 and a relative viability (NCI-H441; first compound 0.3162 µM) of 0.509. For the same compound, the relative viability (201T; first compound 0.01 µM) was 0.716, the relative viability (201T; first compound 0.03162 µM) was 0.731 and the relative viability (201T; first compound 0.3162 µM) was 0.649. The relative viability (NCI-H1395; first compound 0.03162 µM) was 1.06, the relative viability (NCI-H1395; first compound 0.3162 µM) was 1.06 and the relative viability (NCI-H2087; first compound 0.01 µM) was 0.189. For the same compound, the relative viability (NCI-H2087; first compound 0.03162 µM) was 0.196, the relative viability (NCI-H2087; first compound 0.3162 µM) was 0.187 and the relative viability (NCI-H647; first compound 0.01 µM) was 0.61. It also gave a relative viability (NCI-H647; first compound 0.03162 µM) of 0.58, a relative viability (NCI-H647; first compound 0.3162 µM) of 0.509 and a relative viability (NCI-H596; first compound 0.01 µM) of 0.739. It also gave a relative viability (NCI-H596; first compound 0.03162 µM) of 0.779, a relative viability (NCI-H596; first compound 0.3162 µM) of 0.783 and a relative viability (NCI-H2009; first compound 0.01 µM) of 0.257. It also gave a relative viability (NCI-H2009; first compound 0.03162 µM) of 0.243, a relative viability (NCI-H2009; first compound 0.3162 µM) of 0.284 and a relative viability (NCI-H3122; first compound 0.01 µM) of 0.268. It also gave a relative viability (NCI-H3122; first compound 0.03162 µM) of 0.243, a relative viability (NCI-H3122; first compound 0.3162 µM) of 0.22 and a relative viability (EMC-BAC-2; first compound 0.01 µM) of 0.911. It also gave a relative viability (EMC-BAC-2; first compound 0.03162 µM) of 0.912, a relative viability (EMC-BAC-2; first compound 0.3162 µM) of 0.898 and a relative viability (NCI-H2023; first compound 0.03162 µM) of 0.602. The relative viability (NCI-H2023; first compound 0.3162 µM) was 0.48, the relative viability (NCI-H1666; first compound 0.01 µM) was 0.804 and the relative viability (NCI-H1666; first compound 0.03162 µM) was 0.847. For the same compound, the relative viability (NCI-H1666; first compound 0.3162 µM) was 0.903, the relative viability (LCLC-103H; first compound 0.01 µM) was 0.741 and the relative viability (LCLC-103H; first compound 0.03162 µM) was 0.7. It also gave a relative viability (LCLC-103H; first compound 0.3162 µM) of 0.655, a relative viability (BEN; first compound 0.01 µM) of 0.909 and a relative viability (BEN; first compound 0.03162 µM) of 1.14. The relative viability (BEN; first compound 0.3162 µM) was 1.09, the relative viability (NCI-H23; first compound 0.03162 µM) was 0.364 and the relative viability (NCI-H23; first compound 0.3162 µM) was 0.361. For the same compound, the relative viability (HARA; first compound 0.01 µM) was 0.666, the relative viability (HARA; first compound 0.03162 µM) was 0.886 and the relative viability (HARA; first compound 0.3162 µM) was 0.399. For the same compound, the relative viability (NCI-H838; first compound 0.01 µM) was 0.615, the relative viability (NCI-H838; first compound 0.03162 µM) was 0.561 and the relative viability (NCI-H838; first compound 0.3162 µM) was 0.456. It also gave a relative viability (LOU-NH91; first compound 0.01 µM) of 0.784, a relative viability (LOU-NH91; first compound 0.03162 µM) of 0.823 and a relative viability (LOU-NH91; first compound 0.3162 µM) of 0.784. The relative viability (HCC-44; first compound 0.01 µM) was 1.1, the relative viability (HCC-44; first compound 0.03162 µM) was 0.92 and the relative viability (HCC-44; first compound 0.3162 µM) was 1.05. The relative viability (NCI-H727; first compound 0.01 µM) was 0.365, the relative viability (NCI-H727; first compound 0.03162 µM) was 0.36 and the relative viability (NCI-H727; first compound 0.3162 µM) was 0.389. For the same compound, the relative viability (NCI-H2126; first compound 0.01 µM) was 0.574, the relative viability (NCI-H2126; first compound 0.03162 µM) was 0.556 and the relative viability (NCI-H2126; first compound 0.3162 µM) was 0.532. The relative viability (NCI-H1993; first compound 0.01 µM) was 0.551, the relative viability (NCI-H1993; first compound 0.03162 µM) was 0.493 and the relative viability (NCI-H1993; first compound 0.3162 µM) was 0.449.
